Results published in patent US9079878B2, “(4-phenylimidazol-2-yl) ethylamine derivatives useful as sodium channel modulators” (Pfizer Limited, priority 2011, dated 2015).
pIC50: −log10 of the molar value.

The molecules below were run against T1, hNav1.8 (Homo sapiens, UniProt Q9Y5Y9) (assay: hNav1.8 whole-cell patch-clamp electrophysiology in HEK cells (conventional or PatchXpress 7000)). Settings: estimated IC50 calculated from single point % inhibition; HEK cells stably transfected with hNav1.8; 20 msec step to 0 mV after 8 second prepulse to V1/2; average of replicates; read-out: NaV1.8 EIC50.
T1 construct: host or cells: HEK cells, stably transfected
T1 sequence (Q9Y5Y9 whole entry): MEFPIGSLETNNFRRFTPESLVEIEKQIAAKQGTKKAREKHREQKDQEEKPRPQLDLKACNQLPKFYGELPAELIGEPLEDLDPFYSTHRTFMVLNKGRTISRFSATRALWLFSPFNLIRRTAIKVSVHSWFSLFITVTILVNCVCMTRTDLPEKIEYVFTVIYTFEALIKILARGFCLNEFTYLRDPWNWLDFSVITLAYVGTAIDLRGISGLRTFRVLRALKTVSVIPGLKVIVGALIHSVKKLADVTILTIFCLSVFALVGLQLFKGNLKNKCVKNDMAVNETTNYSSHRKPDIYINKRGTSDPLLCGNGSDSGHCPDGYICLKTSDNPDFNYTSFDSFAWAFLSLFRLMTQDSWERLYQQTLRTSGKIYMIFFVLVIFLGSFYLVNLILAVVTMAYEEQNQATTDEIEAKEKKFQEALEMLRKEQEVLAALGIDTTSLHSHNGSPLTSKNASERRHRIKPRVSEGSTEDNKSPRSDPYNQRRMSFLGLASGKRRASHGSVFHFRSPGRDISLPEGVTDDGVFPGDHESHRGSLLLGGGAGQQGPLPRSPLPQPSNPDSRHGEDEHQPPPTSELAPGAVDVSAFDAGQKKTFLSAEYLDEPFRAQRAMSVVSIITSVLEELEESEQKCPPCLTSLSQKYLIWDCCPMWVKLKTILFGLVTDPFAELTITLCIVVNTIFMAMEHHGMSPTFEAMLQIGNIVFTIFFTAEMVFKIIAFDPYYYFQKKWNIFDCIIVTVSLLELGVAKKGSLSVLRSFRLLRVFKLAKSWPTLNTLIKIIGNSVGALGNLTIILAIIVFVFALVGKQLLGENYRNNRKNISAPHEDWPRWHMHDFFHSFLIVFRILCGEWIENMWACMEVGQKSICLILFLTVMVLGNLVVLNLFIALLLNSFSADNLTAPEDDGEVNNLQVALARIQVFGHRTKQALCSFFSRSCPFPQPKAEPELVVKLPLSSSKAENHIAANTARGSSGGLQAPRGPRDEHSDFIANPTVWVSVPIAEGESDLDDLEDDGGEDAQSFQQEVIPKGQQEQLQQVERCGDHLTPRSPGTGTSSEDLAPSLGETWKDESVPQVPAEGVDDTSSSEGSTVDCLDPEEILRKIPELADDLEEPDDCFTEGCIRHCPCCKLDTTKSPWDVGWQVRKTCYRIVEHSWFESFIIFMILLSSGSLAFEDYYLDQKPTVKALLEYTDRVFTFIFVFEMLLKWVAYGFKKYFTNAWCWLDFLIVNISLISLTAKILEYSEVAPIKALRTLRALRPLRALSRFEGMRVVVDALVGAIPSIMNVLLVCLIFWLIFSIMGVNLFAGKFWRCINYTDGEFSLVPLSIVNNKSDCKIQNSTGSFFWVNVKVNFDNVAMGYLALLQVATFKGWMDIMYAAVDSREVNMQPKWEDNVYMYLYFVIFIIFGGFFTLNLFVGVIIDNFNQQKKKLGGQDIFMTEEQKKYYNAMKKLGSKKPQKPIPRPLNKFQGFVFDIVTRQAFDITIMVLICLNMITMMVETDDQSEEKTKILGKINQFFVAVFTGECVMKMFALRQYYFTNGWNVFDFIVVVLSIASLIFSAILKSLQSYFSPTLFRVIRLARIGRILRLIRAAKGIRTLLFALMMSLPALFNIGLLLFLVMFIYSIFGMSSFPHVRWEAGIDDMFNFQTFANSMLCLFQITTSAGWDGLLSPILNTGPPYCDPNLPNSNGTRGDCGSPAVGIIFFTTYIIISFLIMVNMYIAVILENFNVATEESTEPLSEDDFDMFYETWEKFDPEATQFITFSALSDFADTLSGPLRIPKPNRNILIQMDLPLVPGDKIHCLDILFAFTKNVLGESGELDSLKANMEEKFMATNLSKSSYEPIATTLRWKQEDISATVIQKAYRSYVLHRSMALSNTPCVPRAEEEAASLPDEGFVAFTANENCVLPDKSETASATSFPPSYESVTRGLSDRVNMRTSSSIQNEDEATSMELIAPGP
Type: cell-based
Text: The ability of the imidazole derivatives of the formula (I) to inhibit the NaV1.8 channel may be measured using the assay described below.
HEK cells stably transfected with hNav1.8, purchased from Millipore (Millipore Corp., Billerica, Mass. 01821), were maintained according to manufacturer's instructions. For electrophysiological studies, cells were removed from the culture flask by brief trypsinization and re-plated at low density onto glass cover slips. Cells were typically used for electrophysiological experiments within 24 to 72 h after plating.
Cover slips containing HEK cells expressing hNav1.8 were placed in a bath on the stage of an inverted microscope and perfused (approximately 1 mL/min) with extracellular solution of the following composition: 138 mM NaCl, 2 mM CaCl2, 5.4 mM KCl, 1 mM MgCl2, 10 mM glucose, and 10 mM HEPES, pH 7.4, with NaOH. […] The osmolarity of the extracellular and intracellular solutions was 300 mOsm/kg and 295 mOsm/kg, respectively. All recordings were made at room temperature (22-24° C.) using AXOPATCH 200B amplifiers and PCLAMP software (Axon Instruments, Burlingame, Calif.).
hNav1.8 currents in HEK cells were measured using the whole-cell configuration of the patch-clamp technique (Hamill et al., 1981). Uncompensated series resistance was typically 2 to 5 mega ohms and >85% series resistance compensation was routinely achieved. […] Current records were acquired at 20 to 50 KHz and filtered at 5 to 10 KHz.
HEK cells stably transfected with hNav1.8 were viewed under Hoffman contrast optics and placed in front of an array of flow pipes emitting either control or compound-containing extracellular solutions. All compounds were dissolved in dimethyl sulfoxide to make 10 mM stock solutions, which were then diluted into extracellular solution to attain the final concentrations desired.
The voltage-dependence of inactivation was determined by applying a series of depolarizing prepulses (8 sec long in 10 mV increments) from a negative holding potential. The voltage was then immediately stepped to 0 mV to assess the magnitude of the sodium current. Currents elicited at 0 mV were plotted as a function of prepulse potential to allow estimation of the voltage at which 50% of the channels were inactivated (midpoint of inactivation or V1/2). Compounds were tested for their ability to inhibit hNav1.8 sodium channels by activating the channel with a 20 msec voltage step to 0 mV following an 8 second conditioning prepulse to the empirically determined V1/2. Compound effect (% inhibition) was determined by difference in current amplitude before and after application of test compounds. For ease of comparison, “estimated IC-50” values were calculated from single point electrophysiology data by the following equation, (tested concentration, uM)×(100−% inhibition/% inhibition). Inhibition values <20% and >80% were excluded from the calculation.
In some cases electrophysiological assays were conducted with PatchXpress 7000 hardware and associated software (Molecular Devices Corp). All assay buffers and solutions were identical to those used in conventional whole-cell voltage clamp experiments described above. hNav1.8 cells were grown as above to 50%-80% confluency and harvested by trypsinization. Trypsinized cells were washed and resuspended in extracellular buffer at a concentration of 1×10^6 cells/mL. The onboard liquid handling facility of the PatchXpress was used for dispensing cells and application of test compounds. Determination of the voltage midpoint of inactivation was as described for conventional whole-cell recordings. Cells were then voltage-clamped to the empirically determined V1/2 and current was activated by a 20 msec voltage step to 0 mV.
In the case of `C[C@@H](c1nc(-c2ccc(OC(F)(F)F)cc2)c[nH]1)C1(N)COC1` (single isomer, unassigned) [Example 11], the pIC50 was 8.05.
`NC1(Cc2nc(-c3ccc(OC(F)(F)F)cc3)c[nH]2)CCOCC1` [Example 7, 4-({4-[4-(Trifluoromethoxy)phenyl]-1H-imidazol-2-yl}methyl)tetrahydro-2H-pyran-4-amine] showed a pIC50 of 6.40.
With `NC1(Cc2nc(-c3ccc(OC(F)(F)F)cc3)c[nH]2)CCOC1` (stereo not shown) [Example 3, 3-({4-[4-(Trifluoromethoxy)phenyl]-1H-imidazol-2-yl}methyl)tetrahydrofuran-3-amine] the pIC50 was 6.59.
Molecule `CC(c1nc(-c2ccc(C(F)(F)F)cc2)c[nH]1)C1(N)COC1` (racemic) [Example 12, 3-(1-{4-[4-(Trifluoromethyl)phenyl]-1H-imidazol-2-yl}ethyl)oxetan-3-amine] has a pIC50 of 8.01.
`NC1(Cc2nc(-c3ccc(OC(F)F)cc3)c[nH]2)COC1` [Example 5, 3-({4-[4-(Difluoromethoxy)phenyl]-1H-imidazol-2-yl}methyl)oxetan-3-amine] showed a pIC50 of 6.32.
Molecule `CC(c1nc(-c2ccc(OC(F)(F)F)cc2)c[nH]1)C1(N)COC1` (racemic) [Example 9, 3-(1-{4-[4-(Trifluoromethoxy)phenyl]-1H-imidazol-2-yl}ethyl)oxetan-3-amine] has a pIC50 of 7.59.
`Cc1cc(-c2c[nH]c(CC3(N)COC3)n2)ccc1Cl` [Example 2, 3-{[4-(4-Chloro-3-methylphenyl)-1H-imidazol-2-yl]methyl}oxetan-3-amine] was tested, and the pIC50 was 6.44.
In the case of `NC1(Cc2nc(-c3ccc(OC(F)(F)F)cc3)c[nH]2)CCCOC1` (stereo not shown) [Example 1, 3-({4-[4-(Trifluoromethoxy)phenyl]-1H-imidazol-2-yl}methyl)tetrahydro-2H-pyran-3-amine], the pIC50 was 6.72.
`C[C@@H](c1nc(-c2ccc(C(F)(F)F)cc2)c[nH]1)C1(N)COC1` (single isomer, unassigned) [Example 14] showed a pIC50 of 7.29.
For `NC1(Cc2nc(-c3ccc(C(F)(F)F)cc3)c[nH]2)COC1` [Example 4, 3-({4-[4-(Trifluoromethyl)phenyl]-1H-imidazol-2-yl}methyl)oxetan-3-amine], the pIC50 was 6.44.
For `CC[C@@H](c1nc(-c2ccc(OC(F)(F)F)cc2)c[nH]1)C1(N)COC1` (single isomer, unassigned) [Example 17], the pIC50 was 7.12.
`NC1(Cc2nc(-c3ccc(S(F)(F)(F)(F)F)cc3)c[nH]2)COC1` [Example 6, 3-({4-[4-(Pentafluoro-λ^6-sulfanyl)phenyl]-1H-imidazol-2-yl}methyl)oxetan-3-amine] gave a pIC50 of 6.04.
In the case of `CCC(c1nc(-c2ccc(OC(F)(F)F)cc2)c[nH]1)C1(N)COC1` (racemic) [Example 15, 3-(1-{4-[4-(Trifluoromethoxy)phenyl]-1H-imidazol-2-yl}propyl)oxetan-3-amine], the pIC50 was 7.96.
Work on `C[C@H](c1nc(-c2ccc(C(F)(F)F)cc2)c[nH]1)C1(N)COC1` (single isomer, unassigned) [Example 13] yielded a pIC50 of 8.11.
`C[C@H](c1nc(-c2ccc(OC(F)(F)F)cc2)c[nH]1)C1(N)COC1` (single isomer, unassigned) [Example 10] showed a pIC50 of 8.48.
Molecule `CC[C@H](c1nc(-c2ccc(OC(F)(F)F)cc2)c[nH]1)C1(N)COC1` (single isomer, unassigned) [Example 16] has a pIC50 of 7.49.
